No end group written: not given here.
Columns and labels:
[1] = system: RAW-264.7 macrophages; experiment: Apoptosis and proliferation of RAW264.7 macrophages (nucleosome formation, flow cytometry); assay type: cell-based, mouse
Description: (§1) Cells were plated in 96-well plates at an initial concentration of 10,000 cells per well. Apoptosis was measured by direct determination of nucleosomal DNA fragmentation with the “cell death detection” ELISA plus kit according to the manufacturer's protocol.
(§2) Cells were treated with UCN and/or LPS at the indicated concentrations for different time points, collected in PBS and incubated with 7-amino-actinomycin (7AAD) for 10 minutes. Cells were washed and analyzed by Flow Cytometry (Coulter).

[2] = system: primary bone marrow macrophages; experiment: Apoptosis of primary bone marrow macrophages; assay type: cell-based
Description: as §1, §2

[3] = system: RAW264.7 cells; experiment: Stress kinase, Bax and Fas Ligand in RAW264.7 cells (Western blot); assay type: cell-based, mouse
Description: Following stimulation cells were harvested and lyzed in 62.5 mM Tris HCl pH=6.8, 10% glycerol, 2% SDS, and freshly added inhibitors phenylmethylsulfonyl fluoride (10 μg/ml), 0.5 mM DTT and 50 mM Na2F.

[4] = target: T1, CRH-R2 receptor (Mus musculus, UniProt Q60748); conditions: cited from earlier work
T1 construct: monocyte/macrophage cells which express both the CRH-R1 and the CRH-R2 receptors on the surface; endogenous in cells; host or cells: macrophages
T1 sequence (Q60748 whole entry): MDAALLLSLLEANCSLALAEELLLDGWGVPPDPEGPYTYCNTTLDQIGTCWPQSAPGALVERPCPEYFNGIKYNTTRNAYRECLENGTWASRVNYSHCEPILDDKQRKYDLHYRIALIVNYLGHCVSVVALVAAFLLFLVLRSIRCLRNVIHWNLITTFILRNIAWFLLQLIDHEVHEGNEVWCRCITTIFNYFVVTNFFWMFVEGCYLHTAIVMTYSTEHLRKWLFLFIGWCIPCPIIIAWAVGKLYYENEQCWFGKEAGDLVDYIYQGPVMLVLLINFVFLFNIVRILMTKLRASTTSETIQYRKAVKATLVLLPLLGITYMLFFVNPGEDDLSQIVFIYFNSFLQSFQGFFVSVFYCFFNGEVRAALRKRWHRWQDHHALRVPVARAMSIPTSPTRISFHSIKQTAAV

With “urocortin (DNPSLSIDLTFHLLRTLLELARTQSQRERAEQNRIIFDSV; ends and bridges not checked; UniProt P55089 83-122, looked up) [UCN]” the cell proliferation ([1]; cells cultured in the presence of serum) was “promoted cell proliferation”, the apoptosis ([1]; serum-deprived, LPS-induced cells, 10^−9M UCN, 10 μg/ml LPS) was “promoted apoptosis” and the LPS-induced apoptosis [2] was “enhanced”. For the same substance, the “LPS-induced p38MAPK and JNK activation” value ([3]; UCN plus LPS) was “enhances”, the Bax ([3]; UCN treatment) was “upregulation” and the “Fas Ligand expression” value ([3]; UCN treatment) was “enhancement”. For the same substance, the “activation of the stress-induced kinases JNK and p38MAPK” value ([3]; UCN treatment) was “rapid activation” and the apoptosis on macrophages [4] was “induce apoptosis”.

From US20090247558A1, “USE OF THE CRH (CORTICOTROPIN RELEASING HORMONE) - UCN (UROCORTIN) SYSTEM IN THE TREATMENT OF INFLAMMATORY DISEASES” (priority 2002, published 2009)
